# Reference: patent publication US9060959B2, “Synergistic compositions and method for potentiating anti-oxidative activity” (The State of Israel, Ministry of Agriculture & Rural …, priority 2003, dated 2015)
# Key:
# [1] = in vivo; cited from earlier work
# [2] = system: peroxides / lipid peroxidation catalyzed by metmyoglobin; test: Simulated gastric system comprising polyphenol and metmyoglobin catalyst, with antacid; format: biochemical; settings: low acidic conditions obtained by addition of antacid, metmyoglobin catalyst
# Description: An unexpected phenomenon established by the inventors of the present invention is that that in the stomach, generation or breakdown of peroxides by endogenous catalysts or catalysts obtained from food products, or components thereof, and food supplements can be selected by polyphenols and antacids. In other words, the appropriate combination of polyphenol and antacids can invert the catalyzed reaction from pro-oxidation to antioxidation consequently attenuating lipid peroxidation in the stomach.
# The terms “a gastric-simulating system” or “simulated gastric system” are interchangeably used herein to describe an experimental setup comprising components which simulate, in-vitro, the environment of the GI tracts or components thereto. In a particular example, a gastric simulating system may comprise the following components: HCl 0.1N and pepsin (Kanner et al. ibid).
# Hydroperoxides measurement in linoleic acid emulsions: Catechin was dissolved in 10% ethanol in water and the reaction tubes were incubated in triplicate in a shaking bath at 37° C. for 180 min. Samples of 25 or 50 μl were taken from the reaction tubes during the incubation and added to 475 or 950 μl, respectively, of FOX2 reagent. Before each experiment, old stock solution of linoleic acid was mixed with fresh solution in order to maintain an accurately consistent initial level of hydroperoxides.
# [3] = system: β-carotene oxidation catalyzed by metmyoglobin; test: β-carotene co-oxidation in simulated gastric fluid; format: biochemical
# Protocol: Here B carotene co-oxidation was determined in order to identify free radical damage during lipid peroxidation in the same model system of acid gastric fluid (FIG. 2).
# However, the addition of catechin to the same system containing metmyoglobin inhibited β-carotene oxidation by 100% (FIG. 2).
Molecule,raises pH of the stomach to [1] [pH],lipid peroxidation [2],peroxide generation [2],inhibition of β-carotene oxidation ([3]; acid gastric fluid model system containing metmyoglobin) [%],"β-carotene co-oxidation ([3]; low acidic conditions obtained by addition of antacid, metmyoglobin catalyst)"
O=C([O-])[O-].[Ca+2] [Calcium carbonate],≤ 7.0,,,,
[Mg+2].[OH-].[OH-] [Magnesium hydroxide],9,,,,
catechin,,completely prevented,zero,100,completely prevented
